Experiment [1] relates to naive adult male Sprague-Dawley rats. As to the kind of experiment: Rat licking (Vogel conflict) test for anxiolytic activity. Conditions: subcutaneous, 30 min before test, control 119 ± 30. The experiment is classed as in vivo. The procedure: Following the procedure described by Vogel et al., Psychopharmacologia 21, 1-7 (1971), thirsty naive rats are periodically administered shocks in an appropriate test apparatus for licking water, thereby setting up a simple conflict procedure. In the following experiment, naive adult male Sprague-Dawley rats (approximately 170 g) are randomly divided into 5 groups and deprived of water for 48 hours prior to the test session. Food is available in the home cage at all times.
Thirty minutes following subcutaneous injection, each animal is placed in the apparatus, permitted to find the drinking tube and complete 20 licks before shock is administered. The test animal controls shock duration by withdrawing from the drinking tube. At the termination of the first shock, shocks are delivered following each twentieth lick. The number of licks, indicating the number of shocks taken during a 3 minute period is recorded for each animal, compared with placebo, and with animals treated with established anxiolytic agents. A "release" from suppressed licking response, i.e., a greater number of licks compared to controls, is predictive of anxiolytic activity.
Following essentially this same procedure, the following results are observed utilizing the compound of Example II, i.e., 2-[4-[4-(2-pyrimidinyl)-1-piperazinyl]butylimino]-tetrahydro-4,4-dimethyl- 6H-1,3-thiazin-6-one

Another experiment addresses T1, 5-HT1A recognition sites (Rattus norvegicus, UniProt P19327).
T1 sequence (P19327 1-422): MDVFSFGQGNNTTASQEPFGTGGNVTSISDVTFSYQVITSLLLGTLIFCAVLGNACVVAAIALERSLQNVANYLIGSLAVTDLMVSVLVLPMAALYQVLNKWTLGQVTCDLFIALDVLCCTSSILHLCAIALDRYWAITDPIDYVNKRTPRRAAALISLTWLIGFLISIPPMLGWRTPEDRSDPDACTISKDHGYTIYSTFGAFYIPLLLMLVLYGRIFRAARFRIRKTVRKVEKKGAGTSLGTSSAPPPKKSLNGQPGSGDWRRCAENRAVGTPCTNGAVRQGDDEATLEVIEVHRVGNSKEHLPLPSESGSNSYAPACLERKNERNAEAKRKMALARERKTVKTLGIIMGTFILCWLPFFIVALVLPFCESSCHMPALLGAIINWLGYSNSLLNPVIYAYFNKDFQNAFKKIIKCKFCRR
As to the kind of experiment: 5-HT1A radioligand binding ([3H]-8-OH-DPAT). The settings on record: rat frontal cortex homogenate, 37° C. 15 min, read-out: 5-HT1A Binding Affinity Rat Brain Cortex (pIC50) (converted). How it is done: Radioligand binding studies of the 5-HT1A recognition sites are conducted in the following manner. Male normotensive Sprague-Dawley rat frontal cortex is dissected, frozen in liquid nitrogen and stored at -20° C. until needed. Tissues from 4-8 rats are pooled and homogenized in 70 vol Tris-HCl buffer (50 mM, pH 7.7), using a kinematica Polytron (setting 2/3 max speed, 20 sec). The homogenate is centrifuged (36500×g for 10 min), the pellet re-homogenised in the same volume of buffer and the process is repeated two more times. Between the second and third centrifugations the tissue homogenate is incubated at 37° C. for 10 min. The final pellet is suspended in the same volume of Tris buffer containing 10 µM pargyline, 5.7 mM CaCl2 and 0.1% ascorbic acid. This suspension is incubated for 10 min at 37° C. and then stored on ice until used in the binding assay.
Tissue homogenate (0.7 ml), radioactive ligand (0.1 ml) and the appropriate concentration of test compound (0.1 ml), together with buffer to a final volume of 1 ml are incubated at 37° C. for 15 min. Incubations are terminated by rapid filtration through Whatman GF/B filters followed by three 5 ml washes with ice-cold Tris-HCl buffer (50 mM, pH 7.0). Radioactivity is measured following extraction into Aquasol-Z (NEN) at an efficiency of 45-50%. The radioligand used to label the 5-HT1A recognition sites and its concentration is [^3 H]-8-hydroxy-2-(di-n-propylamino)-tetralin, [^3 H]-8-OH-DPAT, […].
Following essentially the above procedure, the following compounds were tested. Results are expressed as pIC50 ([…] concentration of test compound which inhibits specific binding by 50%).

Structures can show the parent of a compound that is named as a salt.

As for `CN1C(=O)CN=C(c2ccccc2)c2cc(Cl)ccc21` [Diazepam, reference compound], in experiment [1] (dose 0.75 mg/kg), the “Licks taken over 3 min. period” value was 247 ± 36.

`CC1(C)CC(=O)SC(=NCCCCNCC2COc3ccccc3O2)N1` (stereo not shown) [Example I, 2-[4-[(2,3-dihydro-1,4-benzodioxin-2-yl)methylamino]butylimino]-tetrahydro-4,4-dimethyl-6H-1,3-thiazin-6-one oxalate]: the IC50 on 5-HT1A recognition sites is 2.82 nM.

Regarding `CC1(C)CC(=O)SC(=NCCCCN2CCN(c3ncccn3)CC2)N1` [Example II, 2-[4-[4-(2-Pyrimidinyl)-1-piperazinyl]butylimino]-tetrahydro4,4-dimethyl-6H-1,3-thiazin-6-one], the IC50 on 5-HT1A recognition sites is 47.9 nM. Also, the “Licks taken over 3 min. period” value stood at 150 ± 28 in experiment [1] (dose 0.05 mg/kg), 223 ± 34 in experiment [1] (dose 0.25 mg/kg) and 220 ± 27 in experiment [1] (dose 1.25 mg/kg).

As for `O=C1CC2(CCCC2)NC(=NCCCCN2CCN(c3ncccn3)CC2)S1` [Example III, 2-[4-[4-(2-Pyrimidinyl)-1-piperazinyl]-butylimino]-tetrahydro-4,4-tetramethylene-6H-1,3-thiazin-6-one], at 5-HT1A recognition sites, the IC50 was 166 nM.
